Where a name gives a salt, the structure may show the parent alone. Read-outs that look alike come from different tables or passages of the source.
Biological target: T1, recombinant human 5HT6 receptor (Homo sapiens, UniProt P50406)
T1 construct: purchased Receptor Biology; host or cells: HEK-293
Assay: Binding to the 5HT6 serotonin receptor ([3H]-LSD, HEK-293 cell membranes)
Conditions: for inhibition at 1 µM: read-out: % Inhibition 10^−6 M
Experimental: Binding to the 5HT6 Serotonin Receptor
The respective part of the literature descriptions is incorporated here by reference and form part of the disclosure. […] The assays are carried out in triplicate.

[1] = table 1e, compounds of general formula (Ie)
[2] = 10^−6 M, table 1d, compounds of general formula (Id)
[3] = 10^−6 M, table 1f, compounds of general formula (If)
[4] = table 1f, compounds of general formula (If)
[5] = table 1c, compounds of general formula (Ic)
[6] = 10^−6 M, table 1c, compounds of general formula (Ic)
[7] = 10^−6 M, table 2b, compounds of general formula (Ib)
[8] = table 1h, compounds of general formula (Ih)

T1 sequence (P50406 whole entry): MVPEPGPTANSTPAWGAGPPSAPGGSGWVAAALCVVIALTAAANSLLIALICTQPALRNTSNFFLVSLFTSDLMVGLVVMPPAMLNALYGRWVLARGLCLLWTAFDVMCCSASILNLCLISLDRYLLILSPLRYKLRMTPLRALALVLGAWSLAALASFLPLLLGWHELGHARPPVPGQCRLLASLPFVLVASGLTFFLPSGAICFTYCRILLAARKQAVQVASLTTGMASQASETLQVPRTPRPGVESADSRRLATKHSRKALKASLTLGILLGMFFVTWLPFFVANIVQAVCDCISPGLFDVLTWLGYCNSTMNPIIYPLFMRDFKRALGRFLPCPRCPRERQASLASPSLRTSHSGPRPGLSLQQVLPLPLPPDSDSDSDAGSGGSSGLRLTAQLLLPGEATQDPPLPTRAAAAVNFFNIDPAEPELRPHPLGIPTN

Compound: CN1CCC(c2c[nH]c3ccc(NS(=O)(=O)c4cccc5ccccc45)cc23)CC1 [Example 13c, N-[3-(1-methylpiperidin-4-yl)-1H-indol-5-yl]naphthalene-1-sulphonamide hydrochloride]
- Ki: 4.7 nM

Compound: CN(C)CCn1ccc2ccc(NS(=O)(=O)c3ccc4ccccc4c3)cc21 [Example 2f, N-[1-(2-Dimethylaminoethyl)-1H-indol-6-yl]-naphthalene-2-sulfonamide]
- Ki: 41.2 nM
- inhibition at 1 µM: 97.7%

Compound: CN(C)CCn1ccc2cc(NS(=O)(=O)c3cccc4ccccc34)ccc21 [Example 3e, N-[1-(2-dimethylaminoethyl)-1H-indole-5-yl]-naphthalene-1-sulfonamide]
- Ki [1]: 94.2 nM

Compound: Cc1c(S(=O)(=O)Nc2cccc3c2ccn3CCN(C)C)sc2ccc(Cl)cc12 [Example 1d, N-[1-(2-dimethylaminoethyl)-1H-indole-4-yl]-5-chloro-3-methylbenzo[b]thiophene-2-sulfonamide]
- inhibition at 1 µM [2]: 83.9%

Compound: CN(C)CCn1ccc2cc(NS(=O)(=O)c3cccc4c(Cl)cccc34)ccc21 [Example 4e, N-[1-(2-dimethylaminoethyl)-1H-indole-5-yl]-5-chloronaphthalene-1-sulfonamide]
- Ki [1]: 112 nM

Compound: CN(C)CCn1ccc2cc(NS(=O)(=O)c3cc(Cl)c(Cl)s3)ccc21 [Example 20e, N-[1-(2-dimethylaminoethyl)-1H-indole-5-yl]-4,5-dichlorothiophene-2-sulfonamide]
- Ki [1]: 84.8 nM

Compound: CN(C)CCn1ccc2ccc(NS(=O)(=O)CCc3cccc4ccccc34)cc21 [Example 6f, N-[1-(2-Dimethylaminoethyl)-1H-indol-6-yl]-2-(naphthalene-1-yl)-ethanesulfonamide]
- inhibition at 1 µM [3]: 94.5%
- Ki [4]: 74.5 nM

Compound: CN(C)CCn1ccc2cc(NS(=O)(=O)c3cc(Cl)cc(Cl)c3)ccc21 [Example 12e, N-[1-(2-dimethylaminoethyl)-1H-indole-5-yl]-3,5-dichlorobenzenesulfonamide]
- Ki [1]: 105 nM

Compound: CCN(CC)CCc1c[nH]c2ccc(NS(=O)(=O)c3ccc4ccccc4c3)cc12 [Example 17c, N-[3-(2-diethylaminoethyl)-1H-indol-5-yl]naphthalene-2-sulphonamide]
- Ki [5]: 5.3 nM

Compound: CN1CCC(c2c[nH]c3ccc(NS(=O)(=O)c4cccc5cccnc45)cc23)CC1 [Example 16c, N-[3-(1-methylpiperidin-4-yl)-1H-indol-5-yl]quinoline-8-sulphonamide]
- % Inhibition 10^−6 M [6]: 94.4 ± 8.6%
- Ki [5]: 21.2 nM

Compound: CN(C)CCn1ccc2c(NS(=O)(=O)c3cccc4ccccc34)cccc21 [Example 3d, N-[1-(2-dimethylaminoethyl)-1H-indole-4-yl]-naphtalene-1-sulfonamide]
- % Inhibition 10^−6 M [2]: 94.8%

Compound: Cc1cccc2c1N(C1CCN(S(=O)(=O)c3cccc4ccccc34)CC1)C(=O)OC2 [Example 4b, 8-Methyl-1-[1-(naphthyl-1-sulfonyl)-piperidine-4-yl]-1,4-dihydro-benzo[d][1,3]oxazine-2-one]
- Ki: 246 nM

Compound: CN(C)CCn1ccc2ccc(NS(=O)(=O)c3cccc4ccccc34)cc21 [Example 3f, N-[1-(2-Dimethylaminoethyl)-1H-indol-6-yl]-naphthalene-1-sulfonamide]
- % Inhibition 10^−6 M [3]: 95.3%
- Ki [4]: 19.8 nM

Compound: CN(C)CCn1ccc2cc(NS(=O)(=O)c3cccc(Br)c3)ccc21 [Example 13e, N-[1-(2-dimethylaminoethyl)-1H-indole-5-yl]-3-bromobenzenesulfonamide]
- Ki [1]: 82.5 nM

Compound: CN(C)CCn1ccc2ccc(NS(=O)(=O)c3c(Cl)nc4sccn34)cc21 [Example 4f, N-[1-(2-Dimethylaminoethyl)-1H-indol-6-yl]-6-chloroimidazo[2,1-b]thiazole-5-sulfonamide]
- inhibition at 1 µM [3]: 90.8%
- Ki [4]: 55.2 nM

Compound: O=C1OCc2ccccc2N1C1CCN(S(=O)(=O)c2cccc3cccnc23)CC1 [Example 5b]
- Ki: 152 nM

Compound: CN1CCC(c2c[nH]c3ccc(NS(=O)(=O)c4ccc(Cl)s4)cc23)CC1 [Example 14c, N-[3-(1-methylpiperidin-4-yl)-1H-indol-5-yl]-5-chlorothiophene-2-sulphonamide]
- % Inhibition 10^−6 M [6]: 95.7 ± 3.4%
- Ki [5]: 24.3 nM

Compound: CN(C)CCn1ccc2c(NS(=O)(=O)c3ccc4ccccc4c3)cccc21 [Example 2d, N-[1-(2-dimethylaminoethyl)-1H-indole-4-yl]-naphtalene-2-sulfonamide]
- % Inhibition 10^−6 M [2]: 104.3%

Compound: CN(C)CCn1ccc2c(NS(=O)(=O)c3ccc(-c4ccccc4)cc3)cccc21 [Example 4d, N-[1-(2-dimethylaminoethyl)-1H-indole-4-yl]-4-phenylbenzenesulfonamide]
- inhibition at 1 µM [2]: 46.6%

Compound: CCN(CC)CCc1c[nH]c2ccc(NS(=O)(=O)c3cc(Cl)cc(Cl)c3)cc12 [Example 4c, N-[3-(2-diethylaminoethyl)-1H-indol-5-yl]-3,5-dichlorobenzenesulphonamide]
- Ki [5]: 9.3 nM

Compound: CN(C)CCn1ccc2c(NS(=O)(=O)c3ccc(Oc4ccccc4)cc3)cccc21 [Example 6d, N-[1-(2-dimethylaminoethyl)-1H-indole-4-yl]-4-phenoxybenzenesulfonamide]
- % Inhibition 10^−6 M [2]: 55.8%

Compound: O=C1OCc2ccccc2N1C1CCN(S(=O)(=O)c2cccc3ccccc23)CC1 [Example 1b, 1-[1-(Naphthyl-1-sulfonyl)-piperidine-4-yl]-1,4-dihydro-benzo[d][1,3]oxazine-2-one]
- Ki: 51.7 nM
- inhibition at 1 µM: 98.1 ± 4%

Compound: CN1CCC(c2c[nH]c3ccc(NS(=O)(=O)c4ccc(-c5ccccc5)cc4)cc23)CC1 [Example 15c, N-[3-(1-methylpiperidin-4-yl)-1H-indol-5-yl]-4-phenylbenzenesulphonamide]
- % Inhibition 10^−6 M [6]: 97.4 ± 0.8%
- Ki [5]: 6.8 nM

Compound: CN(C)c1cccc2c(S(=O)(=O)N3CCC(N4C(=O)OCc5ccccc54)CC3)cccc12 [Example 8b, 1-[1-(5-Dimethylamino-naphthyl-1-sulfonyl)-piperidine-4-yl]-1,4-dihydro-benzo[d][1,3]oxazine-2-one]
- inhibition at 1 µM [7]: 68%

Compound: O=S(=O)(C1CCCCC1)n1cc(C2=CCN3CCCC3C2)c2cc(F)ccc21 (stereo not drawn) [Example 4h, 1-cyclohexanesulfonyl-5-fluoro-3-(1,2,3,5,8,8a-hexahydro-indolizine-7-yl)-1H-indole]
- Ki [8]: 191 nM

Compound: CN(C)CCn1ccc2ccc(NS(=O)(=O)c3ccc(-c4ccccc4)cc3)cc21 [Example 5f, N-[1-(2-Dimethylaminoethyl)-1H-indol-6-yl]-4-phenylbenzenesulfonamide]
- inhibition at 1 µM [3]: 93.4%

Compound: Cc1c(S(=O)(=O)N2CCC(N3C(=O)OCc4ccccc43)CC2)sc2ccc(Cl)cc12 [Example 3b, 1-[1-(5-chloro-3-methyl-benzo[b]tiophene-2-sulfonyl)-piperidine-4-yl]-1,4-dihydro-benzo[d][1,3]oxazine-2-one]
- Ki: 107 nM

Compound: CN1CC=C(c2cn(S(=O)(=O)C3CCCCC3)c3ccc(N)cc23)CC1 [Example 3h, 5-amino-1-cyclohexanesulfonyl-3-(1-methyl-1,2,3,6-tetrahydropyridine-4-yl)-1H-indole]
- Ki [8]: 55.1 nM

Compound: CCN(CC)CCc1c[nH]c2ccc(NS(=O)(=O)c3ccc(-c4ccccc4)cc3)cc12 [Example 5c, N-[3-(2-diethylaminoethyl)-1H-indol-5-yl]-4-phenylbenzenesulphonamide]
- Ki [5]: 1 nM

Compound: CCN(CC)CCc1c[nH]c2ccc(NS(=O)(=O)c3cccc4ccccc34)cc12 [Example 3c, Hydrochloride N-[3-(2-diethylaminoethyl)-1H-indol-5-yl]naphthalene-1-sulphonamide]
- Ki [5]: 3.5 nM

Compound: Cc1c(S(=O)(=O)Nc2ccc3ccn(CCN(C)C)c3c2)sc2ccc(Cl)cc12 [Example 1f, N-[1-(2-Dimethylaminoethyl)-1H-indol-6-yl]-5-chloro-3-methylbenzo[b]thiophene-2-sulfonamide]
- inhibition at 1 µM [3]: 98.6%
- Ki [4]: 90.2 nM

Compound: CN(C)CCn1ccc2cc(NS(=O)(=O)c3c(Cl)nc4sccn34)ccc21 [Example 11e, N-[1-(2-dimethylaminoethyl)-1H-indole-5-yl]-6-chloroimidazo[2,1-b]thiazole-5-sulfonamide]
- Ki [1]: 1.89 nM

Compound: CN1CC=C(c2cn(S(=O)(=O)C3CCCCC3)c3ccc([N+](=O)[O-])cc23)CC1 [Example 1h, 1-cyclohexanesulfonyl-3-(1-methyl-1,2,3,6-tetrahydropyridine-4-yl)-5-nitro-1H-indole]
- inhibition at 1 µM (10^−6 M, table 1h, compounds of general formula (Ih)): 59.8 ± 3%

Compound: Cc1cccc2c1N(C1CCN(S(=O)(=O)c3cccc4cccnc34)CC1)C(=O)OC2 [Example 6b, 8-Methyl-1-[1-(quinolinyl-8-sulfonyl)-piperidine-4-yl]-1,4-dihydro-benzo[d][1,3]oxazine-2-one]
- Ki (table 2b, compounds of general formula (Ib)): 166 nM

Compound: CN(C)CCn1ccc2ccc(NS(=O)(=O)c3ccc(Oc4ccccc4)cc3)cc21 [Example 7f, N-[1-(2-Dimethylaminoethyl)-1H-indol-6-yl]-4-phenoxybenzenesulfonamide]
- % Inhibition 10^−6 M [3]: 95.1%
- Ki [4]: 119 nM

Compound: Cc1cccc2c1N(C1CCN(S(=O)(=O)c3cccc4c(N(C)C)cccc34)CC1)C(=O)OC2 [Example 7b, 1-[1-(5-Dimethylamino-naphthyl-1-sulfonyl)-piperidine-4-yl]-8-Methyl-1,4-dihydro-benzo[d][1,3]oxazine-2-one]
- inhibition at 1 µM [7]: 88%

Compound: CN(C)CCn1ccc2ccc(NS(=O)(=O)c3cc(Cl)cc(Cl)c3)cc21 [Example 8f, N-[1-(2-Dimethylaminoethyl)-1H-indol-6-yl]-3,5-dichlorobenzenesulfonamide]
- inhibition at 1 µM [3]: 86.9%
- Ki [4]: 159 nM
